Drawing on patent US20180221319A1, “METHODS OF TREATING SEIZURE DISORDERS AND PRADER-WILLI SYNDROME” (Ovid Therapeutics Inc., priority 2017, published 2018), this text covers AUCs dose proportionality, Cmax dose proportionality and half-life for one molecule.

Data set [1] is described as follows: plasma pharmacokinetics (elimination half-life, Cmax, AUC versus dose). The following applies: dose range of 5 mg-500 mg.
Description: (§1) “PK” refers to the pharmacokinetic profile. Cmax is defined as the highest plasma drug concentration estimated during an experiment (ng/ml). Tmax is defined as the time when Cmax is estimated (min). AUC0-∞ is the total area under the plasma drug concentration-time curve, from drug administration until the drug is eliminated (ng·hr/ml or g*hr/ml). The area under the curve is governed by clearance. Clearance is defined as the volume of blood or plasma that is totally cleared of its content of drug per unit time (ml/min).
Another data set is described as follows: in vivo. The following applies: plasma.

Description for in vivo: as §1

In general, half-life refers to the time in which the quantity being followed falls by half. High values mean slow loss, low ones fast loss. Turning to `N[C@H]1C[C@@H](C(=O)O)CC1=C(F)F`, in data set [1], the AUCs dose proportionality result was “greater than proportional increase” and the Cmax dose proportionality result is reported as “increases in a dose proportional manner”. Further, in “in vivo”, the half-life is 4 to 6 h.
